Holding throughout (format): functional, cell-based
Assay [1] deals with MKN-1. Put plainly: Antiproliferative activity against human MKN-1 cells assessed as reduction in cell viability measured for 48 hrs by CCK-8 assay. The following applies: MKN-1, 48 h. Background: Tetrazolium dyes change colour on reduction, which living cells bring about.
Assay [2] concerns MKN-1. The experiment in a line: Cytotoxicity against human MKN-1 cells assessed as reduction in cell viability.
Assay [3] relates to MKN-1. Put plainly: Antiproliferative activity against human MKN-1 cells assessed as inhibition of cell proliferation by CCK8 assay.
For assay [4], the system named is P388. The experiment in a line: Cytotoxicity against mouse P388 cells assessed as inhibition of cell growth.
For assay [5], the system named is A549. The experiment in a line: Cytotoxicity against human A549 cells assessed as inhibition of cell growth.
Assay [6] relates to HT-29. The experiment in a line: Cytotoxicity against human HT-29 cells assessed as inhibition of cell growth.
In assay [7] the test system is SK-MEL-28. Put plainly: Cytotoxicity against human SK-MEL-28 cells assessed as inhibition of cell growth.
For assay [8], the system named is A549. Put plainly: Cytotoxicity against human A549 cells assessed as reduction in cell viability measured after 48 hrs by MTT assay. Conditions: A549, 48 h.
Assay [9] relates to A549. Put plainly: Cytotoxicity against human A549 cells assessed as reduction in cell growth incubated for 72 hrs by SRB assay. Conditions: A549, 72 h. On the technique in general: Sulforhodamine B stains cellular protein and so reports cell mass.
Assay [10] relates to Bel-7402. Put plainly: Cytotoxicity against human Bel-7402 cells assessed as reduction in cell growth incubated for 72 hrs by SRB assay. The following applies: Bel-7402, 72 h.
Assay [11] concerns HL-60. Put plainly: Cytotoxicity against human HL-60 cells assessed as reduction in cell growth incubated for 72 hrs by SRB assay. Conditions: HL-60, 72 h.

The structures appear in SMILES notation. ≈ marks a conversion by molar mass, not a printed value.

The source of these data is ChEMBL document CHEMBL5500324, “The potential of marine-derived piperazine alkaloids: Sources, structures and bioactivities” (Eur J Med Chem, 2024).

Turning to `C=CC(C)(C)c1[nH]c2cc(CC=C(C)C)ccc2c1/C=C1\NC(=O)[C@H](C)NC1=O`, the IC50 (as a rule, the concentration needed to halve the response being measured) in assay [1] is 4.6 µM.
In the case of `C=CC(C)(C)c1[nH]c2ccccc2c1/C=c1\[nH]c(=O)c(=C)[nH]c1=O` [NEOECHINULIN B], the IC50 in assay [2] was 4.6 µM; in assay [3], 20.7 µM.
Regarding `COc1c(C)cc2c(c1O)[C@H]1[C@@H]3[C@@H]4SCC(=O)C(=O)OC[C@@H](c5c6c(c(C)c(OC(C)=O)c54)OCO6)N3[C@@H](O)[C@@H](C2)N1C`, the IC50 in [4] was 10 µM; in assay [5], 0.02 µg/mL (≈ 0.0326 µM); in assay [6] it was 0.025 µg/mL (≈ 0.0408 µM); in assay [7] it was 0.025 µg/mL (≈ 0.0408 µM); in [8], 0.01 µg/mL (≈ 0.0163 µM).
As to `C=CC(C)(C)[C@@]12C[C@@]3(OC)C(=O)N/C(=C/c4cn(C(C)(C)CC(C)=O)cn4)C(=O)N3[C@]1(C)Nc1ccccc12`, the IC50 in assay [9] is 42.5 µM; in assay [10], over 50 µM; in [11] it was 36.6 µM.
